Results on 2 compounds are retold here after ChEMBL document CHEMBL2074352, “N-glycosylation controls functional activity of Oatp1, an organic anion transporter” (Am J Physiol Gastrointest Liver Physiol, 2003).

The target of this series is T1, Solute carrier organic anion transporter family member 1A1 (Rattus norvegicus, UniProt P46720).
T1 sequence (P46720 whole entry): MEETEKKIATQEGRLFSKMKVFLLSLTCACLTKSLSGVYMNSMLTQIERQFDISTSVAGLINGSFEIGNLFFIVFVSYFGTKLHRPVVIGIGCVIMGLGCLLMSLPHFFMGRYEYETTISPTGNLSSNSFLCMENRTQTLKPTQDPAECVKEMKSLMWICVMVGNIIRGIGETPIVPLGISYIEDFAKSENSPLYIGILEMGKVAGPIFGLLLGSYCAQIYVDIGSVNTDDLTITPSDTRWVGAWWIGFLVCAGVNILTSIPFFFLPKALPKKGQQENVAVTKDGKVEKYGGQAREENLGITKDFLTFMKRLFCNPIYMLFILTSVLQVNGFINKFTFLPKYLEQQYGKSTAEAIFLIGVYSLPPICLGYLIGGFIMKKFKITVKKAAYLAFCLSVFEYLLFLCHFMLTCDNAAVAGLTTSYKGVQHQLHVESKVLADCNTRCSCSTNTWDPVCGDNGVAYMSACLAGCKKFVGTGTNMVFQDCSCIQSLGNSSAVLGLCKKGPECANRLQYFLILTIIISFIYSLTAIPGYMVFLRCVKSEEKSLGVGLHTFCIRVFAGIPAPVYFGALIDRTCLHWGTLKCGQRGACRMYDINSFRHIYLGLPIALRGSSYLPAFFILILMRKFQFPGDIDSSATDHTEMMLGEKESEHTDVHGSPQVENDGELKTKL
Nature of the series: TP_TRANSPORTER: uptake in Oatp1-expressing Saccharomyces cerevisiae secretory vesicle. The series is classed as functional, subcellular.

Consider `CCCCC/C=C\C\C=C/C=C/C=C/[C@@H](SC[C@@H](NC(=O)CC[C@H](N)C(=O)O)C(=O)NCC(=O)O)[C@@H](O)CCCC(=O)O` [LEUKOTRIEN C4], for which the Activity result was “is not a substrate [-]”.
In the case of `C[C@]12CC[C@@H]3c4ccc(OS(=O)(=O)O)cc4CC[C@H]3[C@@H]1CCC2=O` [ESTRONE SULFURIC ACID], the Activity result was “is not a substrate [-]”.
